Data: patent EP0688218B1, “INTERLEUKIN-1 INHIBITOR” (OTSUKA PHARMACEUTICAL CO., LTD., priority 1993, dated 1994)

Legend:
IL-1α = assay: Inhibition of LPS-stimulated IL-1α release in heparinized peripheral blood culture (ELISA); assay type: cell-based, human; details: Dose 3 x 10^-5 g/ml; 10% heparinized peripheral blood from healthy volunteer; LPS 3.3 µg/ml; 18 - 24 hours
Experimental: (§1) Method: A 10% heparinized prepheral blood from healthy volunteer, a test compound and lipopolysaccharide (LPS, 3.3 µg/ml) were suspended in RPMI-1640 medium supplemented with penicillin 100 units/ml and streptomycin […], and the mixture was incubated in a 5% CO2 atmosphere at 37°C for 18 - 24 hours. The supernatant of the culture was collected by centrifugation.
(§2) The IL-1α and IL-1β isolated from cells by stimulation with LPS were measured by enzyme-linked immunoassay (ELISA). That is, 96-well ELISA plate was coated with a mouse monoclonal antibody against human IL - 1α or human IL-1β, followed by blocking treatment, and thereto was added a test sample and it was subjected to reaction. […] After removing the unbound POD-conjugated antibody by washing, a substrate solution (containing ortho-phenylenediamine and hydrogen peroxide) was added and subjected to reaction, and thereafter, the absorbance at 492 nm was measured, and thereby the amounts of IL-1α and IL-1β were measured based on each standard curve. The ratio (%) of inhibition of IL-1 release was calculated by the following equation: IL-1 release inhibitory ratio (%) = 100 x (1-T/C) [formula] wherein T means the amount of IL-1 in the supernatant of culture incorporated with the test compound, and C means the amount of IL-1 in the supernatant of culture added only with the solvent.

IL-1β = assay: Inhibition of LPS-stimulated IL-1β release in heparinized peripheral blood culture (ELISA); assay type: cell-based, human; details: Dose 3 x 10^-5 g/ml; 10% heparinized peripheral blood from healthy volunteer; LPS 3.3 µg/ml; 18 - 24 hours
Experimental: as §1, §2

SMILES | IL-1α release inhibitory ratio (IL-1α) [%] | IL-1β release inhibitory ratio (IL-1β) [%]
Cc1c(F)c(N2CCNC(C)C2)cc2c1c(=O)c(C(=O)O)cn2C1CC1 (stereo not shown) [Test compound 1, 7-(3-Methyl-1-piperazinyl)-1-cyclopropyl-6-fluoro-5-methyl-1,4-dihydro-4-oxoquinoline-3-carboxylic acid] | 93 | 96
CC1CCc2c(N3CCC(O)CC3)c(F)cc3c(=O)c(C(=O)O)cn1c23 (stereo not shown) [Test compound 2, 9-Fluoro-8-(4-hydroxy-1-piperidinyl)-5-methyl-6,7-dihydro-1-oxo-1H,5H-benzo[ji]quinolidine-2-carboxylic acid] | 82 | 78
